Values joined by “and” are separate entries in the source; they are usually repeats but may differ in a detail not shown here. Identical values can stand only once.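 Protocol summary: plate cells (96-well), add compound at 5 concentrations, incubate 48 h, interpolate endpoints linearly. GI50: concentration for 50% inhibition of growth. Definition used: TGI = concentration required for complete inhibition of growth.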
Key:
Assay in all cases: NCI anticancer screen, dose series, 48 h
[1] = test system: CAKI-1 renal
[2] = test system: DU-145 prostate
[3] = test system: HCC-2998 colon
[4] = test system: HOP-62 NSCLC
[5] = test system: HT29 colon
[6] = test system: MDA-MB-231 breast
[7] = test system: NCI-H23 lung
[8] = test system: NCI-H522 lung
[9] = test system: SR leukemia
[10] = test system: SW-620 colon

Compound | GI50 [1] | TGI [1] | GI50 [2] [µM] | TGI [2] | GI50 [3] [µM] | TGI [3] | GI50 [4] [µM] | TGI [4] | GI50 [5] [µM] | TGI [5] | GI50 [6] [µM] | TGI [6] | GI50 [7] [µM] | TGI [7] | GI50 [8] | TGI [8] | GI50 [9] | TGI [9] | GI50 [10] | TGI [10]
N#Cc1c(NC(=O)CN2CCOCC2)sc2c1CCCC2 | > 25 µM | > 25 µM | > 25 | > 25 µM | > 25 | > 25 µM | > 25 | > 25 µM | > 25 | > 25 µM | > 25 | > 25 µM | > 25 | > 25 µM | > 25 µM | > 25 µM | > 25 µM | > 25 µM | > 25 µM | > 25 µM
CCOC(=O)c1c(C)n2c(=O)cc(C)c3c(OC(C)=O)c(OC(C)=O)cc1c32 | 6.37 µM | > 65.9 µM | 6.33 | 22.2 µM | 2.45 | 15.8 µM | 7.05 | 31.5 µM | 10.9 | 47.5 µM | 4.34 | 34.4 µM | 4.64 | > 34.7 µM | 4.11 µM | 15.1 µM | 2.78 µM | > 32.2 µM | 4.03 µM | 19.3 µM
CN(C)CCCNc1nccc(-c2c(-c3ccc(F)cc3)nn3cc(C(F)(F)F)ccc23)n1 | 12.3 µM | > 25 µM | > 16.6 | > 25 µM | 4.54 | 15 µM | 8.53 | > 25 µM | 6.58 | > 23.9 µM | 3.83 | 11.1 µM | > 25 | > 25 µM | 6.77 µM | > 25 µM | 5.15 µM | 12.6 µM | 7.33 µM | > 25 µM
Oc1cc(O)c2c(=S)cc(-c3ccc(Cl)cc3)oc2c1 | 2.95 µM | 19.1 µM | 4.09 | 35.1 µM | 1.7 | 14.5 µM | 2.03 | 11.2 µM | 19.7 | 39.7 µM | 2 | 6.54 µM | 2.06 | 8.8 µM | 2.29 µM | 7.25 µM | 3.52 µM | 29.6 µM | 3.55 µM | 16.9 µM
COc1ccc(-c2nn(-c3cccc(NC(=O)Nc4cc(C(F)(F)F)cc(C(F)(F)F)c4)c3)cc2-c2ccncc2)cc1Cl | 1.07 µM | 9.44 µM | 1.96 | 9.76 µM | 2.02 | 9.18 µM | 1.09 | 3.29 µM | 1.29 | 5.75 µM | 0.85 | 2.12 µM | 1.41 | 8.22 µM | 0.837 µM | 2.64 µM | 1.02 µM | 3.13 µM | 1.35 µM | 6.5 µM
O=C1/C(=C/c2ccccc2)CCC/C1=C\c1ccccc1 | 7.03 µM and 17 µM | 13 µM and 46.4 µM and 44.7 µM | 16.9 | 13.5 µM and 34 µM | 2.72 | 25.8 µM and 7.64 µM | 7.64 | 13.6 µM and 40 µM and 41.1 µM | 2.54 | 11.5 µM and 18.7 µM and 5.96 µM | 18.5 | 11.6 µM and 68.1 µM | 6.88 | 12.3 µM and 21.9 µM and 36.4 µM | 6.46 µM and 13.7 µM and 15.7 µM | 11.8 µM and 31.8 µM and 35 µM | 10.8 µM and 3.16 µM | 36.5 µM and > 64.3 µM and 7.58 µM | 6.37 µM and 3.19 µM | 11.8 µM and 6.4 µM and 11.2 µM
